Measurements: PMC4333176, “Heterologous expression and biochemical characterization of a highly active and stable chloroplastic CuZn-superoxide dismutase from Pisum sativum” (BMC Biotechnology, 2015)

T1: PschSOD (recombinant chloroplastic CuZn-SOD) (Lathyrus oleraceus, UniProt P11964)
T1 construct: gene SODCP; mature form without chloroplast transit peptide (forward primer encodes MAAKKAVA), pET-28a His-tag kept, E. coli BL21 (DE3), Cu/Zn supplemented, ~18 kDa subunit, homodimer 36-38 kDa
T1 sequence (P11964 49-202): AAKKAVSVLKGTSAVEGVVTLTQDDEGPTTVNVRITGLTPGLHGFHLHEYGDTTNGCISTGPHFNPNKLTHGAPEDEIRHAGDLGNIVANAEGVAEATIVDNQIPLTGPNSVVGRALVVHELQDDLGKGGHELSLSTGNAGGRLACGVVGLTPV

B1: Pisum sativum chloroplastic CuZn-superoxide dismutase (PschSOD), recombinant, without chloroplast transit peptide (enzyme, Pisum sativum (pea), UniProt P11964 49-202, looked up)
chain: T1 sequence (P11964 49-202)
notes: the forward primer (NdeI, [residues removed]) encodes M-AAKKAVA, the reverse primer ends at ...GLTPV and the stop codon; Cloned NdeI/BamHI into pET-28a; One Cu and one Zn per subunit (about 1.84 Cu and 1.6 Zn per dimer); also called Pisum sativum SOD II; pea chloroplastic SOD; source: E. coli BL21 (DE3), pET-28a, purified (Ni-NTA, desalting, buffer exchange, dialysis)

Columns and labels:
[1] = molecular target: T1, PschSOD (recombinant chloroplastic CuZn-SOD); assay: pyrogallol autoxidation SOD assay, residual activity; format: biochemical; conditions: superoxide from pyrogallol autoxidation; no constant
[2] = molecular target: the molecule itself; assay: SEC; analytical gel filtration on a Bio-Sil 250 column, 5 mM K-PO4 pH 7.2 with 150 mM NaCl, calibrated with standard proteins; native mass compared with subunit mass on 15% SDS-PAGE

| Molecule | pyrogallol autoxidation SOD assay, residual activity [1] | stoichiometry N [2] |
| --- | --- | --- |
| [O]O [O2^∙−, superoxide anion] | Superoxide dismutase specific activity of PschSOD, assayed by pyrogallol method |  |
| B1 |  | 2 |
